Laboratory results published in patent publication US8507537B2, “Trifluromethoxyphenyl-substituted tetramic acid derivatives pesticides and/or herbicides” (Bayer CropScience AG, priority 2006, dated 2013).

Tests used:
Assay type in all cases: in vivo
[1] = system: Summer barley; test: Greenhouse container trials with cereals, use of safeners (post-emergence herbicidal effect on crop); conditions: without safener; for Summer barley observed (%) herbicidal effect: 10 days after application; for Summer barley observed (%): 28 days after application
Method: (§1) Post-Emergence Herbicidal Effect
(§2) Seeds of monocotyledonous and dicotyledonous weed plants and crop plants are placed in sandy loam soil in wood fibre pots or in plastic pots and are covered with earth and cultivated in a greenhouse and also, during the vegetation period, outdoors, outside of the greenhouse, under good growth conditions. 2 to 3 weeks after sowing, the trial plants are treated at the one- to three-leaf stage. The test compounds, formulated as wettable powders (WP) or liquids (EC), are sprayed onto the plants and the soil surface in various dosages, with a water application rate of 300 l/ha (converted) and with addition of wetting agent (0.2% to 0.3%). 3 to 4 weeks after the trial plants have been treated, the effect of the products is rated visually in comparison to untreated controls (herbicidal effect in percent: 100% effect=plants have died, 0% effect=like control plants).
(§3) If the testing is also to look at whether safeners can improve the tolerance of the crop plants for test substances, the following options are used for the application of the safener: • seeds of the crop plants are dressed with the safener substance prior to sowing (the amount of safener is stated as a percentage, based on the seed weight) • crop plants are sprayed with the safener, with a defined application rate per hectare, prior to application of the test substances (typically 1 day before the test substances are applied) • the safener is applied together with the test substance in the form of a tank mix (the amount of safener is reported in g/ha or as a proportion relative to the herbicide).
(§4) By comparing the effect of test substances on crop plants which have been treated with safener and without safener it is possible to assess the effect of the safener substance.
(§5) Greenhouse Container Trials with Cereals
(§6) Mefenpyr 1 Day Prior to Herbicide Application

[2] = system: Summer wheat; test: as above
Method: as §1
as §2, with “3 to 4 weeks after the trial plants have been treated, the effect of the products is rated visually in comparison to untreated controls (herbicidal effect in percent: 100% effect=plants have died, 0% effect=like control plants).” left out
as §3, §4, §5, §6

[3] = system: cotton aphid (Aphis gossypii); test: Activity boost through ammonium/phosphonium salts, Aphis gossypii test
Method: (§7) Solvent: 7 parts by weight of dimethylformamide
(§8) Emulsifier: 2 parts by weight of alkylaryl polyglycol ether
(§9) To produce a suitable preparation of active compound, 1 part by weight of active compound is mixed with the stated amounts of solvent and emulsifier, and the concentrate is diluted with emulsifier-containing water to the desired concentration. For application with ammonium salts or phosphonium salts these are added in a concentration of 1000 ppm a.i. to the spray liquor.
(§10) Cotton plants (Gossypium hirsutum) heavily infested by the cotton aphid (Aphis gossypii) are sprayed to runoff with the preparation of active compound at the desired concentration.
(§11) After the desired period of time, the kill in % is determined. 100% means that all aphids have been killed; 0% means that none of the aphids have been killed.

[4] = system: green peach aphid (Myzus persicae); test: Activity boost through ammonium/phosphonium salts in combination with penetration promoters, Myzus persicae test; conditions: 20 ppm active compound
Method: Activity Boost Through Ammonium/Phosphonium Salts in Combination with Penetration Promoters
as §7, §8
(§12) To produce a suitable preparation of active compound, 1 part by weight of active compound is mixed with the stated amounts of solvent and emulsifier, and the concentrate is diluted with water to the desired concentration. For application with ammonium salts or phosphonium salts and penetration promoters (rapeseed oil methyl ester 500 EW) these are in each case added in a concentration of 1000 ppm to the spray liquor.
Bell pepper plants (Capsicum annuum) heavily infested by the green peach aphid (Myzus persicae) are sprayed to runoff with the preparation of active compound at the desired concentration. After the desired time, the kill in % is determined. 100% means that all of the animals have been killed; 0% means that no animals have been killed.

[5] = system: cotton aphid (Aphis gossypii); test: Activity boost through ammonium/phosphonium salts in combination with penetration promoters, Aphis gossypii test; conditions: 4 ppm active compound
Method: as §7, §8
as §12, with “diluted with emulsifier-containing water to” for “diluted with water to”, “1000 ppm a.i. to the” for “1000 ppm to the”
as §10, §11

[6] = system: green peach aphid (Myzus persicae); test: Activity boost through ammonium/phosphonium salts, Myzus persicae test; conditions: 20 ppm active compound
Method: Activity Boost Through Ammonium/Phosphonium Salts
as §7, §8
as §9, with “with” for “with emulsifier-containing”
Bell pepper plants (Capsicum annuum) which are heavily infested by the Green peach aphid (Myzus persicae) are treated with the active compound preparation of the desired concentration by spraying to runoff point. After the desired period of time, the kill in % is determined. 100% means that all animals have been killed; 0% means that none of the animals have been killed.

[7] = system: rice brown planthopper (Nilaparvata lugens); test: Nilaparvata lugens test (NILALU hydroponic treatment); conditions: concentration of 500 ppm after 7 d
Method: NILALU Hydroponic Treatment
• 78 parts by weight of acetone • 1.5 parts by weight of dimethylformamide Emulsifier: • 0.5 part by weight of alkylaryl polyglycol ether
To produce a suitable preparation of active compound, 1 part by weight of active compound is mixed with the stated amounts of solvents and emulsifier, and the concentrate is diluted with emulsifier-containing water to the desired concentration.
The active compound preparation is pipetted into water. The stated concentration refers to the amount of active compound per volume unit of water (mg/l=ppm); the infection with the rice brown planthopper (Nilaparvata lugens) is then carried out.
After the desired period of time, the effect in % is determined. 100% means that all rice planthoppers have been killed; 0% means that none of the rice planthoppers have been killed.

[8] = 20 ppm active compound, +AS (1000 ppm)
[9] = 20 ppm active compound, without AS
[10] = +RME + AS (in each case 1000 ppm)

Structure (SMILES): CCOC1CCCC2(C1)NC(=O)C(c1c(C)cc(C)cc1OC(F)(F)F)=C2OC(C)=O (single isomer, unassigned) [(I-b-24)]
- Summer barley observed (%) herbicidal effect ([1]; 12.5 g of a.i./ha): 10%
- Summer barley observed (%) herbicidal effect ([1]; 25 g of a.i./ha): 20%
- Summer barley observed (%) herbicidal effect ([1]; 50 g of a.i./ha): 30%
- Summer barley observed (%) herbicidal effect ([1]; 100 g of a.i./ha): 30%
- Summer wheat observed (%) herbicidal effect ([2]; 12.5 g of a.i./ha, 10 days after application, without safener): 30%
- Summer wheat observed (%) herbicidal effect ([2]; 25 g of a.i./ha, 10 days after application, without safener): 40%
- Summer wheat observed (%) herbicidal effect ([2]; 50 g of a.i./ha, 10 days after application, without safener): 40%
- Summer wheat observed (%) herbicidal effect ([2]; 50 g of a.i./ha, 28 days after application, without safener): 20%
- Summer wheat observed (%) herbicidal effect ([2]; 100 g of a.i./ha, 10 days after application, without safener): 40%
- Summer wheat observed (%) herbicidal effect ([2]; 100 g of a.i./ha, 28 days after application, without safener): 20%

Structure (SMILES): COC1CCC2(CC1)NC(=O)C(c1c(C)cc(C)cc1OC(F)(F)F)=C2OC(C)=O (single isomer, unassigned) [(I-b-25)]
- Summer wheat observed (%) herbicidal effect ([2]; 100 g of a.i./ha, 10 days after application, without safener (table of I-b-25)): 20%

Structure (SMILES): CCOC1CCC2(CC1)NC(=O)C(c1c(Br)cc(OC(F)(F)F)cc1Br)=C2O (single isomer, unassigned) [I-a-9]
- Kill rate/% after 6 days [3, 8]: 85%
- Kill rate/% after 6 days [3, 9]: 65%

Structure (SMILES): COC1CCC2(CC1)NC(=O)C(c1c(Cl)cc(OC(F)(F)F)cc1Cl)=C2O (single isomer, unassigned) [I-a-29]
- Kill rate/% after 6 days ([4]; +AS (1000 ppm)): 70%
- Kill rate/% after 6 days ([4]; +RME (1000 ppm)): 95%
- Kill rate/% after 6 days [4, 10]: 100%
- Kill rate/% after 6 days ([4]; without additive): 0%
- Kill rate/% after 6 days ([3]; 4 ppm active compound, +AS (1000 ppm)): 70%
- Kill rate/% after 6 days ([3]; 4 ppm active compound, without AS): 5%
- Kill rate/% after 6 days [3, 8]: 85%
- Kill rate/% after 6 days [3, 9]: 70%

Structure (SMILES): COC1CCC2(CC1)NC(=O)C(c1c(Br)cc(OC(F)(F)F)cc1Br)=C2O (single isomer, unassigned) [I-a-32]
- Kill rate/% after 6 days ([5]; +AS (1000 ppm)): 30%
- Kill rate/% after 6 days ([5]; +RME (1000 ppm)): 70%
- Kill rate/% after 6 days [5, 10]: 80%
- Kill rate/% after 6 days ([5]; without additive): 5%
- Kill rate/% after 6 days ([6]; +AS (1000 ppm)): 85%
- Kill rate/% after 6 days ([6]; without AS): 0%

Structure (SMILES): COC1CCC2(CC1)NC(=O)C(c1c(C)cc(OC(F)(F)F)cc1Cl)=C2O (single isomer, unassigned) [I-a-39]
- Kill rate/% after 6 days ([6]; +AS (1000 ppm)): 40%
- Kill rate/% after 6 days ([6]; without AS): 10%

Structure (SMILES): COC1CCC2(CC1)NC(=O)C(c1c(C)cc(C)cc1OC(F)(F)F)=C2O (single isomer, unassigned) [I-a-49]
- Summer wheat observed (%) ([2]; 10 days after application, 25 g of a.i./ha, without safener): 10%
- Summer wheat observed (%) ([2]; 10 days after application, 50 g of a.i./ha, without safener): 20%
- Summer wheat observed (%) ([2]; 10 days after application, 100 g of a.i./ha, without safener): 40%

Structure (SMILES): COC1CCC2(C1)NC(=O)C(c1c(C)cc(C)cc1OC(F)(F)F)=C2O (single isomer, unassigned) [I-a-50]
- Summer barley observed (%) ([1]; 12.5 g of a.i./ha): 8%
- Summer barley observed (%) ([1]; 25 g of a.i./ha): 30%
- Summer barley observed (%) ([1]; 50 g of a.i./ha): 50%
- Summer barley observed (%) ([1]; 100 g of a.i./ha): 60%
- Summer wheat observed (%) ([2]; 28 days after application, 12.5 g of a.i./ha, without safener): 10%
- Summer wheat observed (%) ([2]; 28 days after application, 25 g of a.i./ha, without safener): 40%
- Summer wheat observed (%) ([2]; 28 days after application, 50 g of a.i./ha, without safener): 60%
- Summer wheat observed (%) ([2]; 28 days after application, 100 g of a.i./ha, without safener): 70%

Structure (SMILES): O=C1NC2(CCOCC2)C(O)=C1c1cc(OC(F)(F)F)ccc1Br [I-a-4]
- efficacy [7]: ≥ 80%
